Experimental data: the NIST ThermoML archive (doi:10.1021/je200589f)
± gives the expanded uncertainty stated by the source.

Legend:
[1] = for viscosity / mass density: 101.33 kPa, Liquid; for surface tension liquid-gas: Pendant drop shape; for mass density: Vibrating tube method
[2] = refractive index (Na D-line) (dimensionless); conditions: 101.33 kPa, Liquid, Standard Abbe refractometry

SMILES	viscosity ([1]; 293.15 K) [mPa·s]	surface tension liquid-gas ([1]; 298.15 K) [mN/m]	viscosity ([1]; 298.15 K) [mPa·s]	surface tension liquid-gas ([1]; 303.15 K) [mN/m]	viscosity ([1]; 303.15 K) [mPa·s]	mass density ([1]; 303.15 K) [kg/m3]	surface tension liquid-gas ([1]; 308.15 K) [mN/m]	viscosity ([1]; 308.15 K) [mPa·s]	mass density ([1]; 308.15 K) [kg/m3]	surface tension liquid-gas ([1]; 313.15 K) [mN/m]	viscosity ([1]; 313.15 K) [mPa·s]	mass density ([1]; 313.15 K) [kg/m3]	surface tension liquid-gas ([1]; 318.15 K) [mN/m]	viscosity ([1]; 318.15 K) [mPa·s]	mass density ([1]; 318.15 K) [kg/m3]	surface tension liquid-gas ([1]; 323.15 K) [mN/m]	viscosity ([1]; 323.15 K) [mPa·s]	mass density ([1]; 323.15 K) [kg/m3]	viscosity ([1]; 328.15 K) [mPa·s]	mass density ([1]; 328.15 K) [kg/m3]	also measured
OCCCCCCn1cc[nH+]c1.[Cl-] [1-(6-hydroxyhexyl)imidazolium chloride]	587.2 ± 59	51.25 ± 0.78	420 ± 36	50.05 ± 0.77	320.1 ± 24	1136.59 ± 1.1	48.85 ± 0.76	245.6 ± 16	1133.52 ± 1.1	47.75 ± 0.75	180.5 ± 9.6	1130.53 ± 1.1	46.4 ± 0.73	140.6 ± 6.1	1127.58 ± 1.1	44.95 ± 0.72	110.4 ± 3.7	1124.63 ± 1.1	91.4 ± 2.4	1121.67 ± 1.1	viscosity ([1]; 333.15 K): 72.6 ± 1.4 mPa·s; mass density ([1]; 333.15 K): 1118.72 ± 1.1 kg/m3; viscosity ([1]; 338.15 K): 60.7 ± 1 mPa·s; mass density ([1]; 338.15 K): 1115.77 ± 1.1 kg/m3; viscosity ([1]; 343.15 K): 48.9 ± 0.8 mPa·s; mass density ([1]; 343.15 K): 1112.84 ± 1.1 kg/m3; viscosity ([1]; 348.15 K): 41.3 ± 0.7 mPa·s; mass density ([1]; 348.15 K): 1109.92 ± 1.1 kg/m3; viscosity ([1]; 353.15 K): 35 ± 0.6 mPa·s; mass density ([1]; 353.15 K): 1107.03 ± 1.1 kg/m3; refractive index ([2]; 293.15 K): 1.5093 ± 0.0005; refractive index ([2]; 298.15 K): 1.508 ± 0.0005; refractive index ([2]; 303.15 K): 1.5067 ± 0.0005; refractive index ([2]; 308.15 K): 1.5054 ± 0.0005; refractive index ([2]; 313.15 K): 1.5041 ± 0.0005; refractive index ([2]; 318.15 K): 1.5028 ± 0.0005; refractive index ([2]; 323.15 K): 1.5015 ± 0.0005; refractive index ([2]; 328.15 K): 1.5002 ± 0.0005; refractive index ([2]; 333.15 K): 1.4989 ± 0.0005
CCCCn1cc[n+](CCCCCCO)c1.[Cl-] [1-butyl-3-(6-hydroxyhexyl)-1H-imidazolium chloride]	1489.7 ± 200	32.05 ± 0.59	983.3 ± 120	30.8 ± 0.58	707 ± 76	1063.33 ± 0.97	29.65 ± 0.57	515.8 ± 49	1060.6 ± 0.96	28.35 ± 0.56	360.3 ± 29	1057.85 ± 0.96	27.3 ± 0.55	271.5 ± 19	1055.25 ± 0.95	25.9 ± 0.54	207.7 ± 12	1052.52 ± 0.95	169.4 ± 8.6	1049.89 ± 0.94	viscosity ([1]; 333.15 K): 133 ± 5.5 mPa·s; mass density ([1]; 333.15 K): 1047.18 ± 0.93 kg/m3; viscosity ([1]; 338.15 K): 110.8 ± 3.8 mPa·s; mass density ([1]; 338.15 K): 1044.46 ± 0.93 kg/m3; viscosity ([1]; 343.15 K): 89.4 ± 2.3 mPa·s; mass density ([1]; 343.15 K): 1041.73 ± 0.92 kg/m3; viscosity ([1]; 348.15 K): 76.1 ± 1.6 mPa·s; mass density ([1]; 348.15 K): 1039.05 ± 0.92 kg/m3; viscosity ([1]; 353.15 K): 65.3 ± 1.1 mPa·s; mass density ([1]; 353.15 K): 1036.32 ± 0.91 kg/m3; refractive index ([2]; 293.15 K): 1.5132 ± 0.0005; refractive index ([2]; 298.15 K): 1.5119 ± 0.0005; refractive index ([2]; 303.15 K): 1.5106 ± 0.0005; refractive index ([2]; 308.15 K): 1.5093 ± 0.0005; refractive index ([2]; 313.15 K): 1.508 ± 0.0005; refractive index ([2]; 318.15 K): 1.5067 ± 0.0005; refractive index ([2]; 323.15 K): 1.5054 ± 0.0005; refractive index ([2]; 328.15 K): 1.5041 ± 0.0005; refractive index ([2]; 333.15 K): 1.5028 ± 0.0005
CCn1cc[n+](CCCCCCO)c1.[Cl-] [1-ethyl-3-(6-hydroxyhexyl)-1H-imidazolium chloride]	1348.1 ± 180	42.32 ± 0.69	861.7 ± 100	41.3 ± 0.68	604.5 ± 61	1101.74 ± 1.1	39.95 ± 0.67	431.3 ± 38	1098.91 ± 1	38.75 ± 0.66	294 ± 21	1096.23 ± 1	37.4 ± 0.64	217.7 ± 13	1093.53 ± 1	36.25 ± 0.63	163.9 ± 8.1	1090.95 ± 1	132.2 ± 5.4	1088.27 ± 1	viscosity ([1]; 333.15 K): 102.6 ± 3.2 mPa·s; mass density ([1]; 333.15 K): 1085.63 ± 1 kg/m3; viscosity ([1]; 338.15 K): 84.7 ± 2.1 mPa·s; mass density ([1]; 338.15 K): 1083.07 ± 1 kg/m3; viscosity ([1]; 343.15 K): 67.8 ± 1.2 mPa·s; mass density ([1]; 343.15 K): 1080.43 ± 1 kg/m3; viscosity ([1]; 348.15 K): 57.4 ± 0.9 mPa·s; mass density ([1]; 348.15 K): 1077.84 ± 1 kg/m3; viscosity ([1]; 353.15 K): 49.1 ± 0.8 mPa·s; mass density ([1]; 353.15 K): 1075.27 ± 0.99 kg/m3; refractive index ([2]; 293.15 K): 1.5115 ± 0.0005; refractive index ([2]; 298.15 K): 1.5102 ± 0.0005; refractive index ([2]; 303.15 K): 1.5089 ± 0.0005; refractive index ([2]; 308.15 K): 1.5076 ± 0.0005; refractive index ([2]; 313.15 K): 1.5063 ± 0.0005; refractive index ([2]; 318.15 K): 1.505 ± 0.0005; refractive index ([2]; 323.15 K): 1.5037 ± 0.0005; refractive index ([2]; 328.15 K): 1.5024 ± 0.0005; refractive index ([2]; 333.15 K): 1.5011 ± 0.0005
Cn1cc[n+](CCCCCCO)c1.[Cl-] [3-(6-hydroxyhexyl)-1-methylimidazolium chloride]	1025.9 ± 130	49.95 ± 0.77	679.8 ± 72	48.75 ± 0.76	489.7 ± 46	1119.49 ± 1.1	47.75 ± 0.75	357.6 ± 29	1116.65 ± 1.1	46.65 ± 0.73	249.7 ± 16	1113.91 ± 1.1	45.35 ± 0.72	188 ± 10	1111.28 ± 1.1	43.95 ± 0.71	143.4 ± 6.3	1108.63 ± 1.1	116.6 ± 4.2	1105.92 ± 1.1	viscosity ([1]; 333.15 K): 91.2 ± 2.4 mPa·s; mass density ([1]; 333.15 K): 1103.4 ± 1.1 kg/m3; viscosity ([1]; 338.15 K): 75.7 ± 1.6 mPa·s; mass density ([1]; 338.15 K): 1100.78 ± 1 kg/m3; viscosity ([1]; 343.15 K): 60.6 ± 1 mPa·s; mass density ([1]; 343.15 K): 1098.14 ± 1 kg/m3; viscosity ([1]; 348.15 K): 51.3 ± 0.7 mPa·s; mass density ([1]; 348.15 K): 1095.59 ± 1 kg/m3; viscosity ([1]; 353.15 K): 43.8 ± 0.7 mPa·s; mass density ([1]; 353.15 K): 1092.92 ± 1 kg/m3; refractive index ([2]; 293.15 K): 1.5106 ± 0.0005; refractive index ([2]; 298.15 K): 1.5093 ± 0.0005; refractive index ([2]; 303.15 K): 1.508 ± 0.0005; refractive index ([2]; 308.15 K): 1.5067 ± 0.0005; refractive index ([2]; 313.15 K): 1.5054 ± 0.0005; refractive index ([2]; 318.15 K): 1.5041 ± 0.0005; refractive index ([2]; 323.15 K): 1.5028 ± 0.0005; refractive index ([2]; 328.15 K): 1.5015 ± 0.0005; refractive index ([2]; 333.15 K): 1.5002 ± 0.0005
